Converted amounts (≈) assume the structure as drawn. Blank lines part the entries; values can stand above or below the molecule they belong to.
How the values were obtained:
[1] = Half life in human liver microsomes at 1 uM by LC-MS/MS analysis in presence of NADPH; type: ADME
[2] = target: Protein deacetylase HDAC6 (Homo sapiens, UniProt Q9UBN7); experiment: Inhibition of full length N-terminal GST-tagged human HDAC6 expressed in Sf9 cells using (Arg-His-Lys-Lys(Ac)) as substrate by plate reader analysis
[3] = target: Macrophage metalloelastase (Homo sapiens, UniProt P39900); experiment: Inhibition of human recombinant MMP12 expressed in Escherichia coli using (5-FAM/QXLTM) FRET peptide as substrate
[4] = target: Disintegrin and metalloproteinase domain-containing protein 17 (Homo sapiens, UniProt P78536); experiment: Inhibition of human recombinant TACE expressed in Sf21 cells using MCA-PLAQAV-Dpa-RSSSR-NH2 as substrate
Stromelysin-2 = Stromelysin-2 (Homo sapiens, UniProt P09238); experiment: Inhibition of human recombinant MMP10 expressed in Escherichia coli using (5-FAM/QXLTM) FRET peptide as substrate
Collagenase 3 = Collagenase 3 (Homo sapiens, UniProt P45452); experiment: Inhibition of human recombinant MMP13 expressed in Escherichia coli using (5-FAM/QXLTM) FRET peptide as substrate
[5] = Inhibition of recombinant HCV genotype 1b NS3/4A protease expressed in Escherichia coli using Ac-DE-D(Edans)-EE-Abu-[COO]-AS-K(Dabcyl)-NH2 as substrate; parameters: species or system Hepatitis C virus subtype 1b
Matrilysin = Matrilysin (Homo sapiens, UniProt P09237); experiment: Inhibition of human recombinant MMP7 expressed in Escherichia coli using (5-FAM/QXLTM) FRET peptide as substrate
[6] = Half life in mouse liver microsomes at 1 uM by LC-MS/MS analysis in presence of NADPH; type: ADME
Histone deacetylase 2 = Histone deacetylase 2 (Homo sapiens, UniProt Q92769); experiment: Inhibition of full length C-terminal His-tagged human HDAC2 expressed in Sf9 cells using (Arg-His-Lys-Lys(Ac)) as substrate by plate reader analysis
Stromelysin-1 = Stromelysin-1 (Homo sapiens, UniProt P08254); experiment: Inhibition of human recombinant MMP3 expressed in Escherichia coli using (5-FAM/QXLTM) FRET peptide as substrate
[7] = test system: Hepatitis C virus subtype 1b; experiment: Inhibition of recombinant HCV genotype 1b NS5B Cdelta55 RNA dependent RNA polymerase at 10 uM incubated for 3 hrs using Oligo-U12 primer, UTP and Poly(A) template by scintillation proximity assay
Histone deacetylase 1 = Histone deacetylase 1 (Homo sapiens, UniProt Q13547); experiment: Inhibition of full length C-terminal GST-tagged human HDAC1 expressed in Sf9 cells using (Arg-His-Lys-Lys(Ac)) as substrate by plate reader analysis
[8] = Half life in human liver microsomes at 1 uM by LC-MS/MS analysis in presence of UDPGA; type: ADME
[9] = Half life in human plasma at 1 to 24 hrs by LC-MS/MS analysis; type: ADME, cell-free
[10] = Half life in mouse liver microsomes at 1 uM by LC-MS/MS analysis in presence of UDPGA; type: ADME
Neutrophil collagenase = Neutrophil collagenase (Homo sapiens, UniProt P22894); experiment: Inhibition of human recombinant MMP8 expressed in Escherichia coli using (5-FAM/QXLTM) FRET peptide as substrate
Histone deacetylase 11 = Histone deacetylase 11 (Homo sapiens, UniProt Q96DB2); experiment: Inhibition of N-terminal GST-tagged human HDAC11 expressed in baculovirus expression system using (Arg-His-Lys-Lys(Ac)) as substrate by plate reader analysis
[11] = target: Polyamine deacetylase HDAC10 (Homo sapiens, UniProt Q969S8); experiment: Inhibition of N-terminal GST-tagged human HDAC10 expressed in Sf9 cells using (Arg-His-Lys-Lys(Ac)) as substrate by plate reader analysis
Histone deacetylase 5 = Histone deacetylase 5 (Homo sapiens, UniProt Q9UQL6); experiment: Inhibition of full length N-terminal GST-tagged human HDAC5 expressed in Sf9 cells using (Boc-Lys(trifluoroacetyl)-AMC) as substrate by plate reader analysis
Hepatitis C virus [12] = experiment: Antiviral activity against HCV assessed as reduction of viral replicon RNA level by RT-qPCR analysis; type: functional, organism-based; conditions: Hepacivirus hominis
[13] = Thermodynamic solubility of the compound in DPBS buffer at pH 7.4 after 72 hrs by UV spectrometric analysis; type: physicochemical; conditions: read-out: Therm_solubility
Interstitial collagenase = Interstitial collagenase (Homo sapiens, UniProt P03956); experiment: Inhibition of human recombinant MMP1 expressed in Escherichia coli using (5-FAM/QXLTM) FRET peptide as substrate
[14] = Half life in mouse plasma at 1 to 24 hrs by LC-MS/MS analysis; type: ADME, cell-free
Histone deacetylase 4 = Histone deacetylase 4 (Homo sapiens, UniProt P56524); experiment: Inhibition of N-terminal GST-tagged human HDAC4 expressed in baculovirus expression system using (Boc-Lys(trifluoroacetyl)-AMC) as substrate by plate reader analysis
Histone deacetylase 9 = Histone deacetylase 9 (Homo sapiens, UniProt Q9UKV0); experiment: Inhibition of C-terminal His-tagged human HDAC9 expressed in baculovirus expression system using (Boc-Lys(trifluoroacetyl)-AMC) as substrate by plate reader analysis
Histone deacetylase 3 = Histone deacetylase 3 (Homo sapiens, UniProt O15379); experiment: Inhibition of full length C-terminal His-tagged human HDAC3 expressed in baculovirus expression system using (Arg-His-Lys-Lys(Ac)) as substrate by plate reader analysis
Histone deacetylase 7 = Histone deacetylase 7 (Homo sapiens, UniProt Q8WUI4); experiment: Inhibition of N-terminal GST-tagged human HDAC7 expressed in baculovirus expression system using (Boc-Lys(trifluoroacetyl)-AMC) as substrate by plate reader analysis
[15] = target: Matrix metalloproteinase-9 (Homo sapiens, UniProt P14780); experiment: Inhibition of human recombinant MMP9 expressed in Escherichia coli using (5-FAM/QXLTM) FRET peptide as substrate
[16] = target: Matrix metalloproteinase-14 (Homo sapiens, UniProt P50281); experiment: Inhibition of human recombinant MMP14 expressed in Escherichia coli using (5-FAM/QXLTM) FRET peptide as substrate
Histone deacetylase 8 = Histone deacetylase 8 (Homo sapiens, UniProt Q9BY41); experiment: Inhibition of full length human HDAC8 expressed in Escherichia coli using (Arg-His-Lys(Ac)-Lys(Ac)) as substrate by plate reader analysis
[17] = Cytotoxicity against human HuH7 cells assessed as cell viability after 3 days by CellTiter 96 aqueous one solution cell proliferation assay; type: cell-based, Huh-7
Hepatitis C virus [18] = experiment: Antiviral activity against HCV genotype 1b replicon infected in human HuH7 cells after 3 days by luciferase reporter assay; type: functional, organism-based, Hepacivirus hominis; conditions: Huh-7, 72 h
[19] = Therapeutic index, ratio of CC50 for human HuH7 cells to EC50 for HCV genotype 1b replicon; type: cell-based, Huh-7; conditions: read-out: Ratio CC50/EC50
Hepatitis C virus [20] = experiment: Antiviral activity against HCV genotype 1b replicon infected in human HuH7 cells at 10 uM after 3 days by luciferase reporter assay; type: functional, Hepacivirus hominis; conditions: Huh-7, 72 h
[21] = Cytotoxicity against human HuH7 cells assessed as inhibition of cell viability at 10 uM after 3 days by CellTiter 96 aqueous one solution cell proliferation assay; type: cell-based, Huh-7; conditions: read-out: Activity

Histone deacetylase 4, sequence (P56524 whole entry): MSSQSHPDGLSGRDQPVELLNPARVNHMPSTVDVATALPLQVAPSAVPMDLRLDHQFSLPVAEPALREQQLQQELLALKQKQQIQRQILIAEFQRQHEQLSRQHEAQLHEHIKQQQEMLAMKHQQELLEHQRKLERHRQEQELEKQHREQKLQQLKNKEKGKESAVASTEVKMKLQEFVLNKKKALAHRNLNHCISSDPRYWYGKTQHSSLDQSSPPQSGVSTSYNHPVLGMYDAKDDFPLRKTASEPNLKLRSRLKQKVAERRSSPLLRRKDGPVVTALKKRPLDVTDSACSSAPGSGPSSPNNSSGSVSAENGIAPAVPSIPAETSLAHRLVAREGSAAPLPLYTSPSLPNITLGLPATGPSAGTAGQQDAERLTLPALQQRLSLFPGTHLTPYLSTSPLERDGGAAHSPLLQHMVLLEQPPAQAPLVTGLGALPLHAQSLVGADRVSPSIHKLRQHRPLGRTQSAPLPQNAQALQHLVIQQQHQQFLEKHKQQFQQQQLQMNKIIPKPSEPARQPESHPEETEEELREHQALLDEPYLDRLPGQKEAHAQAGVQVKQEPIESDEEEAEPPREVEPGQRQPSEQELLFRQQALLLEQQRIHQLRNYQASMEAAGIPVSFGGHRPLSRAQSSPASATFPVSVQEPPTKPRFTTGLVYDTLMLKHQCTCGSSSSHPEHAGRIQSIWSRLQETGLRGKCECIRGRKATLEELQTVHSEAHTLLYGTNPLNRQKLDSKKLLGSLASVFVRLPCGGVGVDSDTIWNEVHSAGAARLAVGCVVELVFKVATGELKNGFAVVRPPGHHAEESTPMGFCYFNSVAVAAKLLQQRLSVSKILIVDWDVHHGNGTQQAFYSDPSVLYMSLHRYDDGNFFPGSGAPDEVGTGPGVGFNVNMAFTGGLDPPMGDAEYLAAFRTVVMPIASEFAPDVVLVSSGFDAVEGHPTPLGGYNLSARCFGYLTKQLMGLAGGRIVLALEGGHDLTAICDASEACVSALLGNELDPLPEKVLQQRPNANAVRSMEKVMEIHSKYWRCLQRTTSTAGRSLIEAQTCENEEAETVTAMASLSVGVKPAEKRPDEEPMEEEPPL
Matrilysin, sequence (P09237 whole entry): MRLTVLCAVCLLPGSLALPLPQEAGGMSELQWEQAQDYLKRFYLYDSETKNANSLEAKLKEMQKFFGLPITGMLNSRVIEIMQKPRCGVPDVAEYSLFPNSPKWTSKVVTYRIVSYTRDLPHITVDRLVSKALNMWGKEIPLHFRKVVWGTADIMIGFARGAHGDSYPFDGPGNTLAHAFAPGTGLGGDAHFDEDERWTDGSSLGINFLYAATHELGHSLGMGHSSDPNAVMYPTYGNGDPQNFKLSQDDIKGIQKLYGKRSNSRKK
Protein deacetylase HDAC6, sequence (Q9UBN7 whole entry): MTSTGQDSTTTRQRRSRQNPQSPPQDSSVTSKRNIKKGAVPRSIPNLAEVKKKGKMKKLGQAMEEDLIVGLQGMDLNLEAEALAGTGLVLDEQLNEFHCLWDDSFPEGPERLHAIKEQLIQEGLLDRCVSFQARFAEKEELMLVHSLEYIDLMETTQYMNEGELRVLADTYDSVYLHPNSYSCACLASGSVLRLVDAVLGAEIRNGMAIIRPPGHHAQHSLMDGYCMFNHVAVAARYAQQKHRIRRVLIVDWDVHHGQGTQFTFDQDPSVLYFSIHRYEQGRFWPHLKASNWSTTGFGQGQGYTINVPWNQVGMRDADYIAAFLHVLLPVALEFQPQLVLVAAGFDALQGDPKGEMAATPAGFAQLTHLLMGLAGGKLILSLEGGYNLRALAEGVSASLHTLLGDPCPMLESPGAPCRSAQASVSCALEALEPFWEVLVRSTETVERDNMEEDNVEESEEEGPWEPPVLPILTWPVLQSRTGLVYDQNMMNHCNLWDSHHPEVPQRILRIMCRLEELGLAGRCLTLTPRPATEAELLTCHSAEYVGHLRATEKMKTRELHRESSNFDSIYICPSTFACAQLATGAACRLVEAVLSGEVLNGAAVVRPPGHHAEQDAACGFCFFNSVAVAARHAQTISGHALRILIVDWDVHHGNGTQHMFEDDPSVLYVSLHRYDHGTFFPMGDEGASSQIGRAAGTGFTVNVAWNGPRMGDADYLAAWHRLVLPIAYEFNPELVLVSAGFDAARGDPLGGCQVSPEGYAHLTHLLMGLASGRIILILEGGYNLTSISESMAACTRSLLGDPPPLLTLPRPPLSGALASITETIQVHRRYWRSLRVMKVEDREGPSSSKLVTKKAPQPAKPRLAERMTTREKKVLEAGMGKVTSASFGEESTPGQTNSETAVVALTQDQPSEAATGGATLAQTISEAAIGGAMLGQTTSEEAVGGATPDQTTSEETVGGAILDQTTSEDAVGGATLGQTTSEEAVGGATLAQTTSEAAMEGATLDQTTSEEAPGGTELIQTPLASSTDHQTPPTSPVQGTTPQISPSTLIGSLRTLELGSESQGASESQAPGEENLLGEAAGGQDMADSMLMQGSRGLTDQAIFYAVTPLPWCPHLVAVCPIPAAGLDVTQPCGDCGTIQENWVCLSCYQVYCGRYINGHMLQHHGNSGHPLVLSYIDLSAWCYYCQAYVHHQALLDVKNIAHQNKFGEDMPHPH
Histone deacetylase 11, sequence (Q96DB2 whole entry): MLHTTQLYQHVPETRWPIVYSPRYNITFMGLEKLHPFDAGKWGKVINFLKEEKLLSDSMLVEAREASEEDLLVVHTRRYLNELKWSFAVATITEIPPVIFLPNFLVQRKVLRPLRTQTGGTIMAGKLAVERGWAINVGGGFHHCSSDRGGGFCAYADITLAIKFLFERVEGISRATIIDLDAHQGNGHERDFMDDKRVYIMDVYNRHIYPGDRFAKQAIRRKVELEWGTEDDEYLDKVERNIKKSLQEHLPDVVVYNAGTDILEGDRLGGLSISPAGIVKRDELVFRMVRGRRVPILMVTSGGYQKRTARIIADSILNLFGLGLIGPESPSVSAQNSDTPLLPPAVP
Matrix metalloproteinase-9, sequence (P14780 whole entry): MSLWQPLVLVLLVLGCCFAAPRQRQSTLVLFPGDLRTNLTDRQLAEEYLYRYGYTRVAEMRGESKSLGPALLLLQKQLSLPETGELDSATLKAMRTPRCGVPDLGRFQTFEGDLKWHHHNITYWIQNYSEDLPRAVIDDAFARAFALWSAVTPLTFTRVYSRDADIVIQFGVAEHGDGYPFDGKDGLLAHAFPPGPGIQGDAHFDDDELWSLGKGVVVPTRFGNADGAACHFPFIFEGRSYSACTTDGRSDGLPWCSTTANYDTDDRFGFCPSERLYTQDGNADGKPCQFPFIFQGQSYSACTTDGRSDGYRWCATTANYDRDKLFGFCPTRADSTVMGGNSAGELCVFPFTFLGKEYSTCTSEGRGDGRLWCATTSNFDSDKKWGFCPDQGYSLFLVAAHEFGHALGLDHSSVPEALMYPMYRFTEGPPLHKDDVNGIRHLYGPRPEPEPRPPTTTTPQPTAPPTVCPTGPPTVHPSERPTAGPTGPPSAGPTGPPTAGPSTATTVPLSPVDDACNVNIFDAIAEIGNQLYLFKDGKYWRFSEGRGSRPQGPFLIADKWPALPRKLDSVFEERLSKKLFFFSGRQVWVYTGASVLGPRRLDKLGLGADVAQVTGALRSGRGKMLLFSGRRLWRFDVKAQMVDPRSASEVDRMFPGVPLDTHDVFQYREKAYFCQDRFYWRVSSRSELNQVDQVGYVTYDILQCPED
Histone deacetylase 7, sequence (Q8WUI4 whole entry): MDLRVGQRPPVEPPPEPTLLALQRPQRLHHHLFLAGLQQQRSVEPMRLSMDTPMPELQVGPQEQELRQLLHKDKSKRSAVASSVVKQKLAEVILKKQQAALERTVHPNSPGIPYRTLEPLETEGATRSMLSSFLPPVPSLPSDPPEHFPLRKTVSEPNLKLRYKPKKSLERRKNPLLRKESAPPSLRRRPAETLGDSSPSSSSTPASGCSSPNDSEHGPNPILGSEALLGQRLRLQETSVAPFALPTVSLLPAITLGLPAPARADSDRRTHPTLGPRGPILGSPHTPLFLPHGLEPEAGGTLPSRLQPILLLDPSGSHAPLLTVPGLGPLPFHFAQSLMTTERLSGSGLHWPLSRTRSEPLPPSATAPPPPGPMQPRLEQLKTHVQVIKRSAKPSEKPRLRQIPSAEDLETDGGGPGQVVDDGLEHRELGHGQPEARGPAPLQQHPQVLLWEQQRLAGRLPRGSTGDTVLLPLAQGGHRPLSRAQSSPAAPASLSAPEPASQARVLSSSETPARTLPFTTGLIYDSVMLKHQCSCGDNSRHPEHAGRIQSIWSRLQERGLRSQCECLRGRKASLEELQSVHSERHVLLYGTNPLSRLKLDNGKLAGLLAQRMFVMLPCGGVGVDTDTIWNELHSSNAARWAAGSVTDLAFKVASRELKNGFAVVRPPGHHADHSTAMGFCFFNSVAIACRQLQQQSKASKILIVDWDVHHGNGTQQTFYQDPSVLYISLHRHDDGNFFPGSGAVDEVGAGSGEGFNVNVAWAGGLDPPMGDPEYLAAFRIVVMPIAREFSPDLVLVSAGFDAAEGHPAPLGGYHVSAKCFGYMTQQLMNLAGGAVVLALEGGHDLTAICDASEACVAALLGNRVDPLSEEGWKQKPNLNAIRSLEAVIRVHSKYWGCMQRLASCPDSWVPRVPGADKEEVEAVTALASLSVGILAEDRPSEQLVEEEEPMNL
Neutrophil collagenase, sequence (P22894 whole entry): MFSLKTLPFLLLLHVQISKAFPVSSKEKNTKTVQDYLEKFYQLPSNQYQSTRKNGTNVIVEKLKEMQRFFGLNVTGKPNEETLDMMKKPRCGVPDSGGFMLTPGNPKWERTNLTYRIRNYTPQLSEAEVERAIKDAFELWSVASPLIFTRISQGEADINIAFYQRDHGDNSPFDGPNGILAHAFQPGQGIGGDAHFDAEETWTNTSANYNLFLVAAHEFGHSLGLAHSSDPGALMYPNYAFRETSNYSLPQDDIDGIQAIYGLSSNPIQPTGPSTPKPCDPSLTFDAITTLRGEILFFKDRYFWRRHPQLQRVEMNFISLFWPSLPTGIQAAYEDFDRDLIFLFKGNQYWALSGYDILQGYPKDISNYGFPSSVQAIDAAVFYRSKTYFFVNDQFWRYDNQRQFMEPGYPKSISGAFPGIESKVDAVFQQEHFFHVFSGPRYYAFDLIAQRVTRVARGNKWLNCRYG

- half-life at 1 µM [1]: 11.6 h
- IC50 [2]: 0.183 µM
- IC50 [3]: > 100 µM
- IC50 [4]: 21.5 µM
- IC50 (Stromelysin-2): > 100 µM
- IC50 (Collagenase 3): > 100 µM
- IC50 [5]: > 200 µM
- IC50 (Matrilysin): > 100 µM
- half-life at 1 µM [6]: 0.77 h
- IC50 (Histone deacetylase 2): 6.36 µM
- IC50 (Stromelysin-1): > 100 µM
- inhibition [7]: < 5%
- IC50 (Histone deacetylase 1): 4.11 µM
- half-life at 1 µM [8]: 8.88 h
- half-life [9]: > 24 h
- half-life at 1 µM [10]: 0.247 h
- IC50 (Neutrophil collagenase): > 100 µM
- IC50 (Histone deacetylase 11): 5.53 µM
- IC50 [11]: 6.32 µM
- IC50 (Histone deacetylase 5): 34.7 µM
- solubility thermodynamic at 72 h [13]: 648 µM (≈ 150 µg/mL)
- IC50 (Interstitial collagenase): > 100 µM
- half-life [14]: 23.2 h
- IC50 (Histone deacetylase 4): > 100 µM
- IC50 (Histone deacetylase 9): > 100 µM
- IC50 (Histone deacetylase 3): 5.37 µM
- IC50 (Histone deacetylase 7): > 100 µM
- IC50 [15]: > 100 µM
- IC50 [16]: > 100 µM
- IC50 (Histone deacetylase 8): 0.954 µM
SMILES: O=C(/C=C/c1ccc(C(F)(F)F)cc1)NO
- Activity (Hepatitis C virus [12]): Dose-dependent effect

- EC50 (Hepatitis C virus [18]): 1.2 µM
SMILES: C#CCCCC(=O)NCCOCCOCCOc1ccc(C(=O)c2ccc(/C=C/C(=O)NO)cc2)cc1
- CC50 at 72 h [17]: 25 µM
- selectivity ratio [19]: 21

- half-life at 1 µM [1]: 12.8 h
- half-life at 1 µM [6]: 1.31 h
- half-life at 1 µM [8]: 0.0233 h
- half-life [9]: > 24 h
- half-life at 1 µM [10]: 0.0283 h
- solubility thermodynamic at 72 h [13]: 3350 µM (≈ 1120 µg/mL)
- half-life [14]: > 24 h
SMILES: O=C(NO)c1sc2ccccc2c1S(=O)(=O)c1ccccc1
- Activity (Hepatitis C virus [12]): Dose-dependent effect

SMILES: [N-]=[N+]=NCCCNC(=O)CCCC[C@@H]1SC[C@@H]2NC(=O)N[C@@H]21
- inhibition at 10 µM (Hepatitis C virus [20]): < 10%
- inhibition at 72 h, 10 µM [21]: < 5%

- EC50 (Hepatitis C virus [18]): 0.48 µM
SMILES: O=C(/C=C/c1ccc(C(=O)c2ccccc2)cc1)NO
- CC50 at 72 h [17]: 16 µM
- selectivity ratio [19]: 33

SMILES: C#CCCCC(=O)NCCOCCOCCOc1ccc(C(=O)c2ccc(/C=C/C(=O)O)cc2)cc1
- inhibition at 10 µM (Hepatitis C virus [20]): < 5%
- inhibition at 72 h, 10 µM [21]: < 5%

From ChEMBL document CHEMBL3751715, “Design and synthesis of an activity-based protein profiling probe derived from cinnamic hydroxamic acid” (Bioorg Med Chem, 2016)
